# According to patent publication US7741359B2, “Hydrogen sulfide derivatives of non-steroidal anti-inflammatory drugs” (Antibe Therapeutics Inc., priority 2006, dated 2010):
# “Also recorded” adds a separate entry of the source.
# Legend:
# [1] = Incidence of gastric damage at the end of the leukocyte adherence experiment; details: for Percent Incidence of Gastric Damage: end of experiment
# Method: Briefly, post-capillary mesenteric venules in anesthetized rats are examined under a light microscope. […] All test compounds were prepared in a vehicle of 1% carboxymethylcellulose. Changes in leukocyte adherence within the venule were recorded with a video camera attached to the microscope, and quantification of the numbers of adherent leukocytes was performed in a blind manner through evaluation of the videotaped images. Each group consisted of 5 male, Wistar rats weighing 150-175 g. A leukocyte was considered “adherent” if it remained stationary for 30 seconds or more (results below are expressed as the mean ± SEM). At the end of the experiment the stomach was opened and examined for the presence of gastric damage, under a dissecting microscope.
# [2] = tested on: leukocyte adherence to the vascular endothelium; experiment: Leukocyte adherence to the vascular endothelium, intravital microscopy of mesenteric venules; details: for Number of Adherent Leukocytes: mean ± SEM
# Method: Briefly, post-capillary mesenteric venules in anesthetized rats are examined under a light microscope. […] All test compounds were prepared in a vehicle of 1% carboxymethylcellulose. Changes in leukocyte adherence within the venule were recorded with a video camera attached to the microscope, and quantification of the numbers of adherent leukocytes was performed in a blind manner through evaluation of the videotaped images. Each group consisted of 5 male, Wistar rats weighing 150-175 g. A leukocyte was considered “adherent” if it remained stationary for 30 seconds or more (results below are expressed as the mean ± SEM).
# COX-1 = biological target: T1, COX-1 (Rattus norvegicus, UniProt Q63921); experiment: Whole blood thromboxane B2 synthesis of treated rats (inhibition of COX-1); format: in vivo; details: for COX-1 activity (whole blood thromboxane B2 synthesis): oral 60 μmol/kg, FIG. 4
# T1 construct: whole blood thromboxane synthesis, which occurs via COX-1; from tissue; host or cells: rat whole blood (ex vivo clotting after oral dosing)
# T1 sequence (Q63921 27-602): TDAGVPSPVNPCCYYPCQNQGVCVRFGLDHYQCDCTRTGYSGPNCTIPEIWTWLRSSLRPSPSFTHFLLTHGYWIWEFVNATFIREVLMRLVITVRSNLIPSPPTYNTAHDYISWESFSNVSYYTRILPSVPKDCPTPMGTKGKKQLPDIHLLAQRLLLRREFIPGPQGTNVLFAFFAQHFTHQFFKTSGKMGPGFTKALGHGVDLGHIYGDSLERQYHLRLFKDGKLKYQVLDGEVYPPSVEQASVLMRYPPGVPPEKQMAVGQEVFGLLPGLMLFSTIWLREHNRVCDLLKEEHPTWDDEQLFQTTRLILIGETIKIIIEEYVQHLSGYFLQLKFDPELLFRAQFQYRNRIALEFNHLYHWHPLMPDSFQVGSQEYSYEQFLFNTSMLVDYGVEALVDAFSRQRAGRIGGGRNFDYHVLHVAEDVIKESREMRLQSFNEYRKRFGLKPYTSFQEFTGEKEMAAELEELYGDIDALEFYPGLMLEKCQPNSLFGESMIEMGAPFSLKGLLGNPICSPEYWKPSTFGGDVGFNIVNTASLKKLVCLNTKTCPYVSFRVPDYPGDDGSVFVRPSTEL
# Method: Inhibition of COX-1 was also measured using the same rats. […] The samples were then centrifuged for 3 min at 9,000 g and the supernatant was frozen at −80° C. for subsequent measurement of thromboxane B2 concentrations using a specific ELISA.
# Inhibition of COX-1 was also measured using the same rats, using the same method as described for FIG. 4. […]
# COX-2 = biological target: T2, COX-2 (Rattus norvegicus, UniProt P35355); experiment: Rat airpouch assay, exudate PGE2 after zymosan (inhibition of COX-2 in vivo); details: 60 μmol/kg; FIG. 11
# T2 construct: from tissue; host or cells: rat subcutaneous airpouch (in vivo, zymosan-induced inflammation)
# T2 sequence (P35355 18-604): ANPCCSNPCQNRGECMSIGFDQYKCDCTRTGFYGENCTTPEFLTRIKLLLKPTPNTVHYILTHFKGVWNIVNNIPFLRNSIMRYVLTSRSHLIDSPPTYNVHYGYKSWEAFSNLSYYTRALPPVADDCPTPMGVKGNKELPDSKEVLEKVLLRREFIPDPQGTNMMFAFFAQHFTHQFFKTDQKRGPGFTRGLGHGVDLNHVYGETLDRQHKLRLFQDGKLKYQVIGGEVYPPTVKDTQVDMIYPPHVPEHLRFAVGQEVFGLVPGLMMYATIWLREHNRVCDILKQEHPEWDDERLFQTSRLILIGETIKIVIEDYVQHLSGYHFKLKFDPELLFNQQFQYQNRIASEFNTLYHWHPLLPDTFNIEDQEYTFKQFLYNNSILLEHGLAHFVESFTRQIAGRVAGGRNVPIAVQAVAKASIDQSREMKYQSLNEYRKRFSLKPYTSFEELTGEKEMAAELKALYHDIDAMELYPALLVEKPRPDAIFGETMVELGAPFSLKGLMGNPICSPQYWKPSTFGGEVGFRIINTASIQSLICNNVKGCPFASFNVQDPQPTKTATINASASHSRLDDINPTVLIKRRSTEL
# Method: Briefly, a subcutaneous “pouch” is created by repeated injections of air over several days. Once established, inflammation in the pouch can be induced by injection of 1 mL of 1% zymosan. […] Another group of 5 rats was treated with the vehicle, but received an injection of 0.9% sterile saline into the pouch rather than zymosan. […]
# Each group consisted of 5 rats.
# [3] = Gastric damage (gastric damage score) in rats after oral dosing; details: for gastric damage: oral 60 μmol/kg, evaluated 3 hours later, FIG. 3
# [4] = Carrageenan hindpaw edema model; format: in vivo, rat; details: oral, dose equimolar to diclofenac at 3 mg/kg, 30 min prior to carrageenan, compared with diclofenac, FIGS. 9, 10
# Method: Male, Wistar rats weighing 175-200 g were given the test compounds orally 30 min prior to subplantar injection of 100 ul of 1% lambda carrageenan. Paw volume measured using an Ugo Basile hydroplethysmometer prior to carrageenan injection and at 1-h intervals thereafter for 5 h.
# [5] = Healing of acetic acid-induced gastric ulcers; format: in vivo, rat; details: starting 3 days after ulcer induction, FIG. 13
# Method: Gastric ulcers were induced via serosal application of acetic acid, as described by Elliott et al., A nitric oxide-releasing nonsteroidal anti-inflammatory drug accelerates gastric ulcer healing in rats. Gastroenterology 1995; 109: 524-530. […] After 4 days of such treatment, the rats were euthanized and the stomach was excised and photographed. The area (in mm^2) of the ulcer was determined planimetrically by an individual unaware of the treatments given to the rats. In a subgroup of 5 rats euthanized 3 days after induction of gastric ulcers (i.e., prior to initiation of drug treatment), the mean surface area of the ulcers was 24±2 mm^2.
# [6] = 60 μmol/kg twice-daily orally for 4 days
smiles,measurement,setting,value
"CC(=O)Oc1ccccc1C(=O)Oc1ccc(-c2cc(=S)ss2)cc1 [Compound I, 4-(5-thioxo-5H-1,2-dithiol-3-yl)phenyl 2-acetoxybenzoate]",percent incidence of gastric damage compared to the parent NSAID alone,[1]; intragastric 30 μmol/kg,significantly reduced the percent incidence of gastric damage when compared to aspirin alone
same,Percent Incidence of Gastric Damage,[1]; intragastric 30 μmol/kg,20%
same,number of adherent leukocytes compared to the parent NSAID alone,[2]; intragastric 30 μmol/kg,significantly reduced the number of adherent leukocytes per 100 μm vessel length when compared to aspirin alone
same,Number of Adherent Leukocytes,[2]; intragastric 30 μmol/kg,2.5 ± 0.3 per 100 μm vessel length
"O=C(Cc1ccccc1Nc1c(F)cccc1Cl)Oc1ccc(-c2cc(=S)ss2)cc1 [Compound III, [2-(2-chloro-6-fluorophenylamino)-phenyl]-acetic acid 4-(5-thioxo-5H-[1,2]dithiol-3-yl)-phenyl ester]",percent incidence of gastric damage compared to the parent NSAID alone,[1]; intragastric 30 μmol/kg,still showed no incidences of gastric damage
same,Percent Incidence of Gastric Damage,[1]; intragastric 30 μmol/kg,0%
same,number of adherent leukocytes compared to the parent NSAID alone,[2]; intragastric 30 μmol/kg,significantly reduced the number of adherent leukocytes per 100 μm vessel length when compared to lumiracoxib alone
same,Number of Adherent Leukocytes,[2]; intragastric 30 μmol/kg,1.7 ± 0.3 per 100 μm vessel length
"COc1ccc2cc(C(C)C(=O)Oc3ccc(-c4cc(=S)ss4)cc3)ccc2c1 (stereo not drawn) [Compound V, 2-(6-Methoxy-naphthale-2-yl)-propionic acid 4-(5-thioxo-5-H-[1,2]dithiol-3-yl)-phenyl ester]",COX-1 activity (whole blood thromboxane B2 synthesis),COX-1,significantly (*p<0.05) inhibited COX-1 activity as compared to the vehicle-treated group; also recorded: somewhat less with Compound V than with naproxen or Compound XX
same,COX-2 activity (exudate PGE2),COX-2,significantly suppressed COX-2 activity as compared to the group treated with vehicle
same,gastric damage,[3],not detectable; also recorded: elicited significantly less damage than naproxen itself
same,percent incidence of gastric damage compared to the parent NSAID alone,[1]; intragastric 60 μmol/kg,significantly reduced the percent incidence of gastric damage when compared to naproxen alone
same,Percent Incidence of Gastric Damage,[1]; intragastric 60 μmol/kg,0%
same,number of adherent leukocytes compared to the parent NSAID alone,[2]; intragastric 60 μmol/kg,significantly reduced the number of adherent leukocytes per 100 μm vessel length
same,Number of Adherent Leukocytes,[2]; intragastric 60 μmol/kg,3.5 ± 0.7 per 100 μm vessel length
"CC(=O)Oc1ccccc1C(=O)Oc1ccc(C(N)=S)cc1 [Compound XVI, 2-Acetoxy-benzoic acid 4-thiocarbamoyl-phenyl ester]",percent incidence of gastric damage compared to the parent NSAID alone,[1]; intragastric 30 μmol/kg,significantly reduced the percent incidence of gastric damage when compared to aspirin alone
same,Percent Incidence of Gastric Damage,[1]; intragastric 30 μmol/kg,0%
same,number of adherent leukocytes compared to the parent NSAID alone,[2]; intragastric 30 μmol/kg,significantly reduced the number of adherent leukocytes per 100 μm vessel length when compared to aspirin alone
same,Number of Adherent Leukocytes,[2]; intragastric 30 μmol/kg,2.3 ± 0.3 per 100 μm vessel length
"NC(=S)c1ccc(OC(=O)Cc2ccccc2Nc2c(Cl)cccc2Cl)cc1 [Compound XVII, [2-(2,6-dichloro-phenylamino)-phenyl]-acetic acid 4-thiocarbamoyl-phenyl ester]",inhibition at 4.1 mg/kg,"COX-1; rat, po, read-out: inhibition of whole blood thromboxane synthesis (COX-1)",> 80%
same,paw edema (paw volume increase),[4],reduced paw edema to a greater extent
same,paw edema (paw volume increase),[4]; 3 mg/kg,comparable to the effect of diclofenac at a dose of 10 mg/kg
same,gastric ulcer healing (ulcer area),[5]; 30 μmol/kg twice-daily orally for 4 days,exhibited significantly greater healing
same,gastric damage score,"[3]; rats fasted 18 h, oral, doses equimolar to diclofenac 20 mg/kg, 3 h after administration, FIG. 1",no gastric damage was seen; also recorded: elicited significantly less gastric damage than diclofenac
same,percent incidence of gastric damage compared to the parent NSAID alone,[1]; intragastric 30 μmol/kg,significantly reduced the percent incidence of gastric damage when compared to diclofenac alone
same,Percent Incidence of Gastric Damage,[1]; intragastric 30 μmol/kg,20%
same,number of adherent leukocytes compared to the parent NSAID alone,[2]; intragastric 30 μmol/kg,significantly reduced the number of adherent leukocytes per 100 μm vessel length
same,Number of Adherent Leukocytes,[2]; intragastric 30 μmol/kg,2.8 ± 0.5 per 100 μm vessel length
"Cc1ccc(Nc2c(F)cccc2Cl)c(CC(=O)Oc2ccc(C(N)=S)cc2)c1 [Compound XVIII, 4-thiocarbamoylphenyl 2-(2-(2-chloro-6-fluorophenylamino)-5-methylphenyl)acetate]",percent incidence of gastric damage compared to the parent NSAID alone,[1]; intragastric 30 μmol/kg,still showed no incidences of gastric damage
same,Percent Incidence of Gastric Damage,[1]; intragastric 30 μmol/kg,0%
same,number of adherent leukocytes compared to the parent NSAID alone,[2]; intragastric 30 μmol/kg,significantly reduced the number of adherent leukocytes per 100 μm vessel length when compared to lumiracoxib alone
same,Number of Adherent Leukocytes,[2]; intragastric 30 μmol/kg,2.3 ± 0.4 per 100 μm vessel length
"COc1ccc2cc(C(C)C(=O)Oc3ccc(C(N)=S)cc3)ccc2c1 (stereo not drawn) [Compound XX, 2-(6-Methoxy-naphthalen-2-yl)-propionic acid 4-thiocarbamyl-phenyl ester]",COX-1 activity (whole blood thromboxane B2 synthesis),COX-1,"significantly (*p<0.05) inhibited COX-1 activity as compared to the vehicle-treated group; also recorded: significantly better at inhibiting thromboxane B2 synthesis than the ADT-OH equivalent, Compound V"
same,gastric ulcer healing (ulcer area),[5]; [6],exhibited significantly greater healing
same,gastric damage,[3],not detectable; also recorded: elicited significantly less damage than naproxen itself
"COc1ccc2cc([C@H](C)C(=O)O)ccc2c1 [Naproxen, naproxen, reference compound]",COX-2 activity (exudate PGE2),COX-2,significantly suppressed COX-2 activity as compared to the group treated with vehicle
same,gastric ulcer healing (ulcer area),[5]; [6],exhibited similar degrees of healing
same,Percent Incidence of Gastric Damage,[1]; intragastric 60 μmol/kg,100%
same,Number of Adherent Leukocytes,[2]; intragastric 60 μmol/kg,10.2 ± 0.4 per 100 μm vessel length
